# Reference: PubChem BioAssay (NCI)
# “And” between values parts separate entries of the source, which are not always exact repeats. Equal values may be shown once.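 Compound exposure: 48 hours, 5 concentrations, 96-well plates. At the GI50, growth is halved. TGI denotes the concentration required for complete inhibition of growth.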
# Columns and labels:
# Assay in all cases: DTP human tumour cell line panel, 48 h
# TK-10 renal = system: TK-10 renal
# HOP-92 NSCLC = system: HOP-92 NSCLC
# 786-0 renal = system: 786-0 renal
# HS 578T breast = system: HS 578T breast
# MDA-MB-435 = system: MDA-MB-435
# RPMI-8226 leukemia = system: RPMI-8226 leukemia
# SNB-19 CNS = system: SNB-19 CNS
# ACHN renal = system: ACHN renal
# HL-60(TB) leukemia = system: HL-60(TB) leukemia
# SNB-75 CNS = system: SNB-75 CNS
SMILES,GI50 (TK-10 renal),TGI (TK-10 renal),GI50 (HOP-92 NSCLC),TGI (HOP-92 NSCLC),GI50 (786-0 renal),TGI (786-0 renal),GI50 (HS 578T breast),TGI (HS 578T breast),GI50 (MDA-MB-435),TGI (MDA-MB-435),GI50 (RPMI-8226 leukemia),TGI (RPMI-8226 leukemia),GI50 (SNB-19 CNS),TGI (SNB-19 CNS),GI50 (ACHN renal),TGI (ACHN renal),GI50 (HL-60(TB) leukemia),TGI (HL-60(TB) leukemia),GI50 (SNB-75 CNS),TGI (SNB-75 CNS)
O=C(O)c1cn(C2CC2)c2cc(N3CCN(S(=O)(=O)c4ccc(Cl)c(Cl)c4)CC3)c(F)cc2c1=O,4.31 µM,> 100 µM,1.54 µM,5.71 µM,4.02 µM,> 100 µM,4.26 µM,> 100 µM,2.97 µM,> 100 µM,2.53 µM,7.59 µM,3.25 µM,> 100 µM,3.1 µM,> 100 µM,2.04 µM,5.17 µM,,
C[C@@H]1CN(Cc2ccc(/C=C/c3n[nH]c4ccc5nc(-c6cn[nH]c6C(F)(F)F)c6c(c5c34)CCCC6)cc2)C[C@H](C)O1,4.92 µM,17.7 µM,3.12 µM,17.9 µM,4.09 µM,17.5 µM,2.05 µM,10.8 µM,6.81 µM,21.2 µM,,,10.2 µM,22.1 µM,2.57 µM,13.7 µM,6.32 µM,28.5 µM,0.643 µM,10.1 µM
Clc1ccccc1-c1nc2ccccc2[nH]1,> 100 µM,> 100 µM,42.1 µM,> 100 µM,> 100 µM,> 100 µM,> 100 µM,> 100 µM,> 100 µM,> 100 µM,94 µM,> 100 µM,> 100 µM,> 100 µM,> 100 µM,> 100 µM,> 100 µM,> 100 µM,> 100 µM,> 100 µM
Cc1cc(-c2ccccc2)c(C)n1Cc1ccc(Cl)cc1,9.66 µM,65.4 µM,1.51 µM,9.28 µM,5.35 µM,39.9 µM,4.43 µM,> 100 µM,0.368 µM,2.55 µM,3.83 µM,61.6 µM,36.4 µM,> 100 µM,4.99 µM,> 100 µM,4.3 µM,55.8 µM,3.17 µM,> 100 µM
N=C(N)n1[nH]c2c(c1=O)CCC2,,> 100 µM,,> 100 µM,,> 100 µM,,> 100 µM,,> 100 µM,,,,> 100 µM,,> 100 µM,,> 100 µM,,> 100 µM
COc1ccc(N2CCN(CC(=O)N3CCN(c4nnc(-c5ccccc5)c(-c5ccccc5)n4)CC3)CC2)cc1,9.39 µM,> 100 µM,7.13 µM,> 94.4 µM,4.91 µM,> 100 µM,9.46 µM,> 100 µM,5.48 µM,> 100 µM,3.98 µM,31.1 µM,> 33.6 µM,> 100 µM,7.94 µM,> 100 µM,6.03 µM,> 43.2 µM,7.63 µM,> 100 µM
COC(=O)c1[nH]nc(-c2ccccc2)c1N1CCCCC1,32.5 µM,68.2 µM,19 µM,64 µM,21.1 µM,57.9 µM,22.4 µM,64.7 µM,64.7 µM,> 100 µM,38 µM,> 100 µM,36.2 µM,> 100 µM,25.6 µM,62.1 µM,> 100 µM,> 100 µM,30.6 µM,84.7 µM
COc1ccc(/C=C/c2nc(N3CCOCC3)c3cc(F)c(F)cc3n2)cc1OC,4.84 µM,> 100 µM,4.13 µM,87.2 µM,4.44 µM,> 100 µM,54.8 µM,> 100 µM,3.18 µM,> 100 µM,2.7 µM,> 100 µM,5.2 µM,> 100 µM,4.35 µM,> 100 µM,4 µM,> 100 µM,6.14 µM,> 100 µM
COc1cc(C(=O)/C=C/c2c(-c3ccc(F)cc3)nc3sccn23)cc(OC)c1OC,3.6 µM,> 24.6 µM,1.7 µM,,2.54 µM,6.49 µM,2.05 µM,6.44 µM,2.13 µM,7.92 µM,2.59 µM,44.6 µM,3.37 µM,27.8 µM,2.99 µM,13.2 µM,1.61 µM,4.19 µM,1.83 µM,7.31 µM
COc1cc(/C=C/C(=O)c2c(C)n([O-])c3cc(C)c(C)cc3[n+]2=O)cc(OC)c1OC,14.8 µM,31.2 µM,18.2 µM,42.5 µM,19.2 µM,46.1 µM,19.9 µM,54.2 µM,20.4 µM,> 100 µM,,,16.9 µM,39.9 µM,13.9 µM,27.9 µM,12.1 µM,61.7 µM,19.8 µM,41.3 µM
CC12C=CC(C)(O1)C1C2c2ccccc2S1(=O)=O (stereo not given),> 100 µM,> 100 µM,58.6 µM,> 100 µM,> 100 µM,> 100 µM,46.2 µM,> 100 µM,52.1 µM,> 100 µM,44.3 µM,> 100 µM,> 100 µM,> 100 µM,69.2 µM,> 100 µM,> 100 µM,> 100 µM,23.2 µM,> 100 µM
COc1ccc(-c2nnc3n(C)c(=O)c4ccccc4n23)cc1O,6.8 µM,> 100 µM,1.31 µM,61.5 µM,2.57 µM,28 µM,0.964 µM,35.9 µM,0.065 µM,0.221 µM,5.01 µM,> 100 µM,0.862 µM,> 64.9 µM,1.15 µM,> 100 µM,0.13 µM,1.32 µM,0.161 µM,27.6 µM
COc1ccc2nc(-c3ccccc3)cc(Nc3ccc(/C(C)=N/O)cc3)c2c1,1.63 µM,3.42 µM,0.821 µM,22.5 µM,2.09 µM,3.7 µM,2.24 µM,5.31 µM,3.4 µM,,2.16 µM,7.06 µM,5.38 µM,> 100 µM,14.1 µM,29.3 µM,2.88 µM,> 100 µM,3.54 µM,> 100 µM
Cn1c2ccccc2c2cc(-c3ccccc3)c3c(c21)C(=O)C=CC3=O,,32 µM,,29.9 µM,,22.7 µM,,61.7 µM,,51.7 µM,,8.61 µM,,> 100 µM,,41.3 µM,,42.3 µM,,67.1 µM
Cc1sc2nc(-c3ccccn3)c(/C=N/N=C(N)N)n2c1C,5.89 µM,11.2 µM,7.55 µM,15.8 µM,4.84 µM,12.6 µM,12.7 µM,27.7 µM,4.53 µM,10.1 µM,4.23 µM,12.1 µM,7.52 µM,19.5 µM,7.29 µM,14.8 µM,4.48 µM,> 100 µM,21.2 µM,47.4 µM
CC1=C[C@H]2c3c(c(O)c(O)c4oc5cc(O)cc(O)c5c(=O)c34)[C@H](c3cc(O)c(O)c4oc5cc(O)cc(O)c5c(=O)c34)[C@H]2C(C)(C)C1,2.12 µM and 3.06 µM,10.5 µM and 14.8 µM,1.94 µM and 1.1 µM,4.73 µM and 3.33 µM,2.43 µM and 2.16 µM,6.66 µM and 6.33 µM,2.07 µM and 1.49 µM,8.9 µM and 7.39 µM,0.962 µM and 1.29 µM,2.67 µM and 3.12 µM,0.915 µM and 0.392 µM,4.57 µM and 2.04 µM,1.33 µM and 1.3 µM,3.31 µM and 4.93 µM,1.73 µM and 1.84 µM,5.27 µM and 10.2 µM,2.04 µM and 2.1 µM,5.72 µM and 10.6 µM,1.51 µM and 2.08 µM,10.5 µM and 12.7 µM
O=C(Cc1ccccc1)Nc1nnc(CCSCCc2nnc(NC(=O)Cc3ccccc3)s2)s1,35.6 µM,> 100 µM,4.5 µM,25.8 µM,6.11 µM,54.6 µM,1.93 µM,79.9 µM,58.2 µM,> 100 µM,5.67 µM,> 100 µM,11.2 µM,33.3 µM,> 100 µM,> 100 µM,4.26 µM,65.4 µM,5.18 µM,24.3 µM
OC(COc1ccc(Cl)cc1Cl)CN1CCCC1 (stereo not given),,> 100 µM,,> 100 µM,,> 100 µM,,> 100 µM,,> 100 µM,,> 100 µM,,> 100 µM,,> 100 µM,,> 100 µM,,> 100 µM
Cc1cc(C)cc(Nc2nccc(-c3c(-c4ccc(F)cc4)ncn3C3CCNCC3)n2)c1,0.717 µM,2.95 µM,1.34 µM,3.53 µM,1.31 µM,2.79 µM,1.96 µM,4.36 µM,0.767 µM,2.09 µM,2.07 µM,5.18 µM,1.68 µM,3.71 µM,0.46 µM,1.79 µM,1.6 µM,3.68 µM,1.25 µM,5.24 µM
COc1cc2c(cc1OCCCCCCNC(=O)c1cc3ccccc3[nH]1)N=CC1CCCN1C2=O (stereo not given),20.7 µM,93.6 µM,25.3 µM,> 100 µM,> 100 µM,> 100 µM,30.6 µM,> 100 µM,39.3 µM,> 100 µM,18.7 µM,77.6 µM,63.1 µM,> 100 µM,35.2 µM,> 100 µM,41.2 µM,> 100 µM,64.2 µM,> 100 µM
Cn1cc(-c2csc(-c3cn(CCN4CCOCC4)c4ccc(F)cc34)n2)c2cccnc21,3.28 µM,18.8 µM,2.39 µM,9.12 µM,2.91 µM,11.4 µM,3.75 µM,> 100 µM,2.77 µM,10.5 µM,1.68 µM,4.96 µM,3.93 µM,> 100 µM,2.82 µM,12.9 µM,2.52 µM,6.87 µM,2.57 µM,50.5 µM
CC(=O)NNC(=O)c1nn(-c2ccc(Cl)cc2)cc1OC(C)=O,15.6 µM,> 100 µM,38.7 µM,> 100 µM,14.4 µM,> 100 µM,40 µM,> 100 µM,30.3 µM,> 100 µM,12.1 µM,64.3 µM,> 70.2 µM,> 100 µM,15.3 µM,> 66.6 µM,,,> 66.5 µM,99.7 µM
CC1OC(OC2C(OC3C[C@@]4(C)C(C[C@H](O)[C@H]5[C@H](C6(C)CCC(C(C)(C)O)O6)CCC54C)[C@]4(C)CC[C@@H](O)C(C)(C)C34)OC(CO)C(O)C2O)C(O)C(O)C1O (stereo not given in full) (tested in a mixture with another compound),,> 100 µM,,> 100 µM,,> 100 µM,,> 100 µM,,> 100 µM,,> 100 µM,,> 100 µM,,> 100 µM,,> 100 µM,,> 100 µM
COc1cc2c(cc1OCCCCC(=O)Nc1ccc(-c3nc4ccccc4s3)cc1)N=C[C@@H]1CCCN1C2=O,3.2 µM,7.97 µM,1.72 µM,4.63 µM,1.56 µM,3.51 µM,2.75 µM,5.86 µM,1.76 µM,3.45 µM,1.45 µM,3.96 µM,2.68 µM,11.2 µM,3 µM,8.53 µM,1.77 µM,6.31 µM,,
O=C1C[C@@H](c2ccccc2)NCCCCN(O)CCCN1,,> 100 µM,,> 100 µM,,> 100 µM,,> 100 µM,,> 100 µM,,> 100 µM,,> 100 µM,,> 100 µM,,> 100 µM,,> 100 µM
Cc1cc[c-]cc1.Fc1c[c-]c(-c2ccccn2)c(F)c1.N#CCC[PH+](CCC#N)c1ccccc1.[Pt+2],4.45 µM,36 µM,2.14 µM,8.05 µM,3.57 µM,18.8 µM,3.39 µM,43.5 µM,2.47 µM,6.75 µM,3.3 µM,31.2 µM,4.91 µM,> 100 µM,3.33 µM,20.9 µM,2.37 µM,18.1 µM,,
